# Measurements reported in patent US20230181546A1, “TREATMENT OF RESPIRATORY DISEASES WITH AMINO ACID COMPOUNDS” (Pliant Therapeutics, Inc., priority 2020, published 2023).
# Molecular target: recombinant human integrin αVβ6 (Homo sapiens, UniProt P06756+P18564)
# Experiment: Solid phase integrin αVβ6 binding assay (Examples B1, B2)
# Conditions: TGFβ1 LAP binding, values given in four ranges, read-out: αvβ6 Inhibition IC50 (nM) - range
# Description: (§1) Microplates were coated with recombinant human integrin αVβ6 (2 μg/mL) in PBS (100 μL/well 25° C., overnight). The coating solution was removed, washed with wash buffer (0.05% Tween 20: 0.5 mM MnCl2; in 1×TBS). The plate was blocked with 200 μL/well of Block Buffer (1% BSA; 5% sucrose; 0.5 mM MnCl2; in 1×TBS) at 37° C. for 2 h. Dilutions of testing compounds and recombinant TGFβ1 LAP (0.67 μg/mL) in binding buffer (0.05% BSA; 2.5% sucrose; 0.5 mM MnCl2; in 1×TBS) were added. The plate was incubated for 2 hours at 25° C., washed, and incubated for 1 hour with Biotin-Anti-hLAP. Bound antibody was detected by peroxidase-conjugated streptavidin. The IC50 values for testing compounds were calculated by a four-parameter logistic regression.
# The compounds tested were compound samples prepared according to procedures described in the Synthetic Examples section, with the stereochemical purity as indicated in the Examples.
# as §1, with “A third series of exemplary compounds was selected for testing in the solid phase integrin αVβ6 binding assay. The compounds tested were compound samples prepared according to procedures described in the Synthetic Examples section, with the stereochemical purity as indicated in the Examples. As in Example B1, microplates” for “Microplates”, “20;” for “20:”
# Chain of recombinant human integrin αVβ6 (P06756 31-992 limits assumed): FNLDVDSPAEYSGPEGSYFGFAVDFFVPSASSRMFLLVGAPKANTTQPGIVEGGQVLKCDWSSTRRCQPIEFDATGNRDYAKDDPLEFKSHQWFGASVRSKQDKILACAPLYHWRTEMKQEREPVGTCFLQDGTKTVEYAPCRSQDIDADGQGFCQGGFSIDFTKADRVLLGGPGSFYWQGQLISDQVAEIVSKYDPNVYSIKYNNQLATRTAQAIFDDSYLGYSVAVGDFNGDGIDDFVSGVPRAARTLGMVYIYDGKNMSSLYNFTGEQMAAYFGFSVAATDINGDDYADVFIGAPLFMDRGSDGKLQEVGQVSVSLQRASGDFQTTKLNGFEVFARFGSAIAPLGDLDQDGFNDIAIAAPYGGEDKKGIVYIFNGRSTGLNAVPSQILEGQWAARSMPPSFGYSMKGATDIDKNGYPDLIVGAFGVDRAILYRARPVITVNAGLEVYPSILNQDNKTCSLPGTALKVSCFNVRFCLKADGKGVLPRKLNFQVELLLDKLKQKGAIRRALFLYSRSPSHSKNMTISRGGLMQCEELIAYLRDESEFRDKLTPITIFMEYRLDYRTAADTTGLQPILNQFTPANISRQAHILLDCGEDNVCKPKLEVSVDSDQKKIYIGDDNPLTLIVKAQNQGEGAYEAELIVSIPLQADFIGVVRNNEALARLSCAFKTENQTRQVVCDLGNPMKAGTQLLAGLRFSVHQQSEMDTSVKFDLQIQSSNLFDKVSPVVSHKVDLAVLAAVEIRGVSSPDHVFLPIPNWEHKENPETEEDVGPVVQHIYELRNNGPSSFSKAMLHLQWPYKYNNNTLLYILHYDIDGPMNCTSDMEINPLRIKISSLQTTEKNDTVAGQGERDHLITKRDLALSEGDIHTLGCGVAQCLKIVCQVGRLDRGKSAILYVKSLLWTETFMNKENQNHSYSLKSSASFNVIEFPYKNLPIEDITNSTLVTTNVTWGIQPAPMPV
# Chain of recombinant human integrin αVβ6 (P18564 22-707 limits assumed): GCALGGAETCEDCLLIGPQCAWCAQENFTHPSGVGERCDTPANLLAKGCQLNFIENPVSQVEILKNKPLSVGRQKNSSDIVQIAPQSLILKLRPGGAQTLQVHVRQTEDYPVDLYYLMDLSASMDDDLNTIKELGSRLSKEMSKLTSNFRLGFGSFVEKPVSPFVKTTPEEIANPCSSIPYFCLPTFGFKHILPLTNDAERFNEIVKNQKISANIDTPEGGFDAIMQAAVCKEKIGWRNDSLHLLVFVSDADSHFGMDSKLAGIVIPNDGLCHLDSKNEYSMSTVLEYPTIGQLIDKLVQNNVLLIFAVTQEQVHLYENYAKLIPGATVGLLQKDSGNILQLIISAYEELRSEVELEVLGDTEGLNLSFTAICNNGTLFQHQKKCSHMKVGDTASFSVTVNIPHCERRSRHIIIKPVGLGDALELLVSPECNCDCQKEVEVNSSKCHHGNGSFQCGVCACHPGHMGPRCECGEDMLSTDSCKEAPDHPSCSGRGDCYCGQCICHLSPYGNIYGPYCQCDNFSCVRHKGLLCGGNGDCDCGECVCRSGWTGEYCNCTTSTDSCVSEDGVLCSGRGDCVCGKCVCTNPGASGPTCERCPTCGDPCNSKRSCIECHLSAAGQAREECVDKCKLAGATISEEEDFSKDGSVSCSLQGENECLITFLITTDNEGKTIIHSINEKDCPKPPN
row,SMILES,IC50 [nM]
1,"COCCN(CCCCc1ccc2c(n1)NCCC2)CC[C@H](Nc1cc(C(F)F)ncn1)C(=O)O [Compound 23, (S)-2-((6-(difluoromethyl)pyrimidin-4-yl)amino)-4-((2-methoxyethyl) (4-(5,6,7,8-tetrahydro-1,8-naphthyridin-2-yl)butyl)amino) butanoic acid]",< 50
2,"O=C(O)[C@H](CCN(CCCCc1ccc2c(n1)NCCC2)CCOC(F)F)Nc1ncnc2ccccc12 [Compound 35, (S)-4-((2-(difluoromethoxy)ethyl) (4-(5,6,7,8-tetrahydro-1,8-naphthyridin-2-yl)butyl)amino)-2-(quinazolin-4-ylamino) butanoic acid]",< 50
3,"Cc1ncccc1OCCN(CCCCc1ccc2c(n1)NCCC2)CC[C@H](Nc1ncnc2cccnc12)C(=O)O [Compound 54, (S)-4-((2-((2-methylpyridin-3-yl)oxy)ethyl) (4-(5,6,7,8-tetrahydro-1,8-naphthyridin-2-yl)butyl)amino)-2-(pyrido[3,2-d]pyrimidin-4-ylamino) butanoic acid]",< 50
4,"CO[C@H](C)CN(CCCCc1ccc2c(n1)NCCC2)CC[C@H](Nc1ncc(Br)cn1)C(=O)O [Compound 70, (S)-2-((5-bromopyrimidin-2-yl)amino)-4-(((R)-2-methoxypropyl) (4-(5,6,7,8-tetrahydro-1,8-naphthyridin-2-yl)butyl)amino) butanoic acid]",< 50
5,"O=C(O)[C@H](CCN(CCCCc1ccc2c(n1)NCCC2)CCOc1ccccc1)Nc1ncc(Br)cn1 [Compound 83, (S)-2-((5-bromopyrimidin-2-yl)amino)-4-((2-phenoxyethyl) (4-(5,6,7,8-tetrahydro-1,8-naphthyridin-2-yl)butyl)amino) butanoic acid]",< 50
6,"O=C(O)[C@H](CCN(CCCCc1ccc2c(n1)NCCC2)CCOc1ccccc1)Nc1ccnc(C(F)(F)F)n1 [Compound 92, (S)-4-((2-phenoxyethyl) (4-(5,6,7,8-tetrahydro-1,8-naphthyridin-2-yl)butyl)amino)-2-((2-(rifluoromethyl)pyrimidin-4-yl)amino) butanoic acid]",< 50
7,"O=C(O)[C@H](CCN(CCCCc1ccc2c(n1)NCCC2)CC(F)F)Nc1ccncn1 [Compound 120, (S)-4-((2,2-difluoroethyl) (4-(5,6,7,8-tetrahydro-1,8-naphthyridin-2-yl)butyl)amino)-2-(pyrimidin-4-ylamino) butanoic acid]",> 1000
